Entries after “also recorded” stand apart in the source; their conditions may differ.
Experiments:
[1] = target: T1, GalNAc-T4 (Homo sapiens, UniProt Q8N4A0); assay: Inhibition of glycosylation dependent (GalNAc-glycopeptide) activity of GalNAc-T4, MALDI-TOF time-course; type: biochemical; conditions: […] free sugar
T1 construct: using the GalNAc-T4-sol construct that encodes residues 32-578 inserted into pT7T3U19; made in house; host or cells: High Five insect cells (baculovirus, pAcGP67)
Procedure: (§1) MALDI-TOF time-course in terminal reactions were performed in reactions of 25 μl containing 2.5 nmol acceptor (glyco)peptide, 40 nmol UDP-GalNAc, and 0.4 μg GalNAc-T4. Sampling of reactions (1 μl) were purified by nano-scale reversed-phase chromatography (Poros R3, PerSeptive Biosystem) and applied directly to the probe with matrix (41). The amount of GalNAc-transferase added was adjusted so that the reaction with the appropriate peptide was near completion in six hours. Reactions were incubated at 37° C. in a shaker bath. At times 0, 2 hours, and 16 hours a 1 μl aliquot was taken and purified. Mass spectra were acquired on either Voyager-DE mass spectrometer equipped with delayed extraction (Perseptive Biosystem Inc.). The matrix used was 2,5-dihydroxybenzoic acid (10 mg/ml, Hewlett-Packard) dissolved in a 2:1 mixture of 0.1% trifluoroacetic acid in 30% aqueous acetonitrile (Rathburn Ltd.).
Quantification of purified proteins was done by Coomassie stained SDS-PAGE and titration of immunoreactivity with the monoclonal antibody, UH6(4G2) (8). […] Wild-type GalNAc-T4 and mutant GalNAc-T4, GalNAc-T4^459H, were analysed with unglycosylated peptides (represented by PSGL-1) or GalNAc glycosylated glycopeptides (represented by GalNAc3TAP25V21) in reactions of 25 μl containing 2.5 nmol acceptor (glyco)peptide, 40 nmol UDP-GalNAc, and 0.4 μg GalNAc-T4. Time-course assays were motioned by MALDI-TOF. Sampling of reactions (1 μl) were purified by nano-scale reversed-phase chromatography (Poros R3, PerSeptive Biosystem) and applied directly to the probe with matrix. Evaluation of inhibition of the glycopeptide specificity of wild-type GalNAc-T4 with free sugars was performed to establish if the lectin domain recognized carbohydrate. […] Further, analysis was performed with 10 mM α-D-GalNAc-1-benzyl, αGlcNAc-benzyl, and fully occupied GalNAc-glycopeptide, GalNAc6TAP25, at 5 mM.

[2] = system: GalNAc-T4; assay: Glycosylation independent activity of GalNAc-T4 with naked peptides, MALDI-TOF; type: biochemical, human; conditions: GalNAc-T4 459D or 459H
Procedure: as §1
Quantification of purified proteins was done by Coomassie stained SDS-PAGE and titration of immunoreactivity with the monoclonal antibody, UH6(4G2) (8). […] Wild-type GalNAc-T4 and mutant GalNAc-T4, GalNAc-T4^459H, were analysed with unglycosylated peptides (represented by PSGL-1) or GalNAc glycosylated glycopeptides (represented by GalNAc3TAP25V21) in reactions of 25 μl containing 2.5 nmol acceptor (glyco)peptide, 40 nmol UDP-GalNAc, and 0.4 μg GalNAc-T4. […]

[3] = target: T2, GalNAc-T3 (Homo sapiens, UniProt Q14435); assay: GalNAc-T3 transferase activities with UDP-GalNAc or UDP-Gal donor (EA2 acceptor, peptide panel); type: biochemical; conditions: UDP-Gal donor; printed Muc2 substrate
T2 construct: Soluble, secreted expression constructs of human GalNAc-transferases GalNAc-T1, -T2, -T3, -T4, -T6, -T7, and -T11; made in house; host or cells: insect cells (baculovirus)
T2 sequence (Q14435 38-633 limits assumed): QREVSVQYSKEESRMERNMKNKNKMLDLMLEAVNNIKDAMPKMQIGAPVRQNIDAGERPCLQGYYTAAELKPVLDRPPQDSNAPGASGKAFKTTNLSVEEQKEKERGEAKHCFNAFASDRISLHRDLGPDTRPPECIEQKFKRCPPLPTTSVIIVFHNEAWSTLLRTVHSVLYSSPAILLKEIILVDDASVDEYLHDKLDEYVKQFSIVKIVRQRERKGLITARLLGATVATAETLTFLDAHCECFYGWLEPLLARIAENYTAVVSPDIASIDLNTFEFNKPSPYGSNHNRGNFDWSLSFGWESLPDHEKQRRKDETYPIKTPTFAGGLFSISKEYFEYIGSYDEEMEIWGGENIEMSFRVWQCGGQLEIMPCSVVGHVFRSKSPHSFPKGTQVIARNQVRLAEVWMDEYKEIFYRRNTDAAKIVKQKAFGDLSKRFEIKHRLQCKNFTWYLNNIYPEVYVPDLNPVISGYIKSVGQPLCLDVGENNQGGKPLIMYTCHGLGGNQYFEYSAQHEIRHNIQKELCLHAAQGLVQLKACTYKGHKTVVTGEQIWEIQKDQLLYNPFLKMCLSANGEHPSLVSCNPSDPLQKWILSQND
Procedure: (§2) Standard reaction mixtures (50 μl final volume) contained 25 mM cocadylate (pH 7.4), 10 mM MnCl2, 0.25% Triton X-100, 200 μM UDP-[^14C]-GalNAc (2,000 cpm/nmol) (Amersham), 200-500 μM acceptor peptides. Products were quantified by scintillation counting after chromatography on Dowex-1, octadecyl silica cartridges (Bakerbond), or HPLC (PC3.2/3 or mRPC C2/C18 SC2.1/10 Pharmacia, Smart System). […] Glycopeptides were purified on Supelclean LC-18 columns (1 ml, Supelco), and the number of GalNAc residues incorporated evaluated by MALDI-TOF mass spectrometry. The enzyme sources used were semipurified as previously described by successive sequential ion-exchange chromatographies on Amberlite (IRA95, Sigma) or DEAE Sephacel (Pharmacia), S-Sepharose Fast Flow (Pharmacia), and Mini-S™ (PC 3.2/3, Pharmacia) using the Smart System (Pharmacia) (28). Secreted GalNAc-T4 was obtained from a stably transfected CHO line (CHO/GalNA-T4/21A) (8) grown in roller bottles in HAMS F12 supplemented with 10% Fetal Bovine Serum. The experiments illustrated in FIG. 1 was performed with recombinant secreted GalNAc-T4 obtained from a stably transfected CHO line (8). Experiments illustrated in FIGS. 2 and 3 were performed with secreted GalNAc-T4 expressed in High Five cells grown in serum-free medium (8). Structural analysis of glycopeptides were performed by a combination of PFPA (pentafluoropropionic acid) hydrolysis and MALDI-TOF mass spectrometry as previously described (40). Secreted GalNAc-T7 was obtained from infected High Five™ cells grown in serum-free medium (Invitrogen) in upright roller bottles shaken 140 rpm in waterbaths at 27° C. GalNAc-T7 was not purified by Mini-S as the yields from cationic chromatography were low due to its low pI (6.4).
(§3) Galactosyl transferring activities of GalNAc-T1, -T2, and -T3, were assayed with a panel of acceptor peptides in standard reaction mixtures containing 100 μM UDP-Gal instead of UDP-GalNAc. […] Further, analysis was performed with 10 mM α-D-GalNAc-1-benzyl, αGlcNAc-benzyl, and fully occupied GalNAc-glycopeptide, GalNAC6TAP25, at 5 mM.

[4] = target: T3, GalNAc-T2 (Homo sapiens, UniProt Q10471); assay: GalNAc-T2 transferase activities with UDP-GalNAc or UDP-Gal donor (Muc2 acceptor, peptide panel); type: biochemical; conditions: UDP-Gal donor; Muc2 substrate
T3 construct: Soluble, secreted expression constructs of human GalNAc-transferases GalNAc-T1, -T2, -T3, -T4, -T6, -T7, and -T11; made in house; host or cells: insect cells (baculovirus)
T3 sequence (Q10471 52-571 limits assumed): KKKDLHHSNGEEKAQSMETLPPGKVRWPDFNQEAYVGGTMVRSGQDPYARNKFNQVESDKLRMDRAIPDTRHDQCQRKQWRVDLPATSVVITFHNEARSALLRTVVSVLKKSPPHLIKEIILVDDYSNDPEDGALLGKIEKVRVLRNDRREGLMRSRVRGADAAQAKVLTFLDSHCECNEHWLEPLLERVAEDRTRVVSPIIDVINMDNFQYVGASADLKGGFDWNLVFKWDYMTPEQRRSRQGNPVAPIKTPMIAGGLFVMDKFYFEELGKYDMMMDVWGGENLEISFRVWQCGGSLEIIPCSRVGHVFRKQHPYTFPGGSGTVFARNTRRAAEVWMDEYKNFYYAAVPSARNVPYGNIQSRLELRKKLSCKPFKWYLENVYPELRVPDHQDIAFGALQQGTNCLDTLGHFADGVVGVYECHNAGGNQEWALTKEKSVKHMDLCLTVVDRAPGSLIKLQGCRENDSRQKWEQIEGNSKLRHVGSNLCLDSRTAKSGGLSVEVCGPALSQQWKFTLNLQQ
Procedure: as §2, §3

[5] = system: wild type CHO/MUC1sol-cloneC4; assay: Secretion of MUC1, western blot of medium; type: cell-based, Chinese Hamster; conditions: 1-2 mM; compared to control treated or non-treated cells
Procedure: In order to characterize the secreted MUC1 product SDS-PAGE western blot analysis of harvested culture medium of confluent cultures were performed. Ten to twenty μL culture supernatant was analysed directly or treated with 0.1 U/mL neuraminidase (C. Perfringes VI, Sigma) for 30-60 min at 37° C. Samples were mixed with SDS sample buffer, reduced with DTT, and run on precast 4-20% gels (Biorad). As shown in FIG. 9 anti-MUC1 antibodies detected two forms of MUC1 in the medium; a low molecular weight form migrating as 130-140 kd corresponding to unglycosylated product, and a high molecular weight form migrating above 250 kd. The high molecular weight form was sensitive to neuraminidase treatment as evidenced by a marked shift and retardation in migration. […]
Because GalNAcα-benzyl exerts separate effects on O-glycan processing and mucin expression, the use of the novel selective inhibitor of mucin expression, GalNAcβ-benzyl, allow analysis of mucin expression and secretion in different cell line models. […] Most human adenocarcinoma cell lines express and secret mucins and analysis with antibodies to detect protein expression or probes to detect mRNA can reveal the types and quantities of mucins. […] The inhibitory effect on mucin secretion can be quantified by a number of assays known to the skilled in the art including western blot, ELISA, gelfiltration, immunocapture, and other assays.

[6] = system: CHOldlD/MUC1F-clone2 cells; assay: MUC1 expression in cell lysates, immunoprecipitation and SDS-PAGE western blot; type: cell-based, Chinese Hamster; conditions: 2 mM, 36 hours
Procedure: We next analysed the expression of MUC1 produced by CHOldlD/MUC1F-clone2 cells by SDS-PAGE western analysis. […] Cells were further treated with 2 mM GalNAcα-benzyl, GlcNAcα-benzyl or no inhibitor. Cells were washed and lysed at 24 or 48 hours and the lysates subjected to immunoprecipitation with monoclonal antibody HMFG2, which broadly recognize MUC1 glycoforms. Immunoprecipitates were analysed by SDS-PAGE and western blot using HMFG2 antibody to detect MUC1 expression. […] In striking contrast, treatment with GalNAcα-benzyl had significant effect after 48 hours. […] This indicates some heterogeneity in glycosylation.
As shown in Examples 8 and 9, polypeptide GalNAc-transferases contain lectin domains with binding properties for GalNAc-peptides including GalNAc-MUC1 peptides. […] GalNAcβ-benzyl, the β-anomeric configuration of GalNAc-benzyl (there is a β linkage between the N-acetylgalactosamine and the benzyl ring), was custom synthesized by Alberta Research Council (Canada), and its structure was confirmed by mass spectrometry and ^1H-NMR. […] Cells were then treated with 2 mM GalNAcα-benzyl, GalNAcβ-benzyl, or GlcNAcα-benzyl as control (GlcNAcα-benzyl was shown in Example 10 to have no effect). Cells were washed and lysed as described above after 36 hours and the lysates subjected to immunoprecipitation with anti-MUC1 monoclonal antibodies HMFG2 or 5E5. […] FIG. 17 illustrates the same experiments as in FIG. 16 except that the detection antibody is 5E5 and only Tn and STn MUC1 glycoforms are visualised.

[7] = target: T4, GalNAc-T7 (Homo sapiens, UniProt Q86SF2); assay: Inhibition of GalNAc-T7 activity with GalNAc2-3EA2 substrate; type: biochemical; conditions: 5 mM
T4 construct: made in house; host or cells: High Five insect cells (baculovirus)
T4 sequence (Q86SF2 30-657 limits assumed): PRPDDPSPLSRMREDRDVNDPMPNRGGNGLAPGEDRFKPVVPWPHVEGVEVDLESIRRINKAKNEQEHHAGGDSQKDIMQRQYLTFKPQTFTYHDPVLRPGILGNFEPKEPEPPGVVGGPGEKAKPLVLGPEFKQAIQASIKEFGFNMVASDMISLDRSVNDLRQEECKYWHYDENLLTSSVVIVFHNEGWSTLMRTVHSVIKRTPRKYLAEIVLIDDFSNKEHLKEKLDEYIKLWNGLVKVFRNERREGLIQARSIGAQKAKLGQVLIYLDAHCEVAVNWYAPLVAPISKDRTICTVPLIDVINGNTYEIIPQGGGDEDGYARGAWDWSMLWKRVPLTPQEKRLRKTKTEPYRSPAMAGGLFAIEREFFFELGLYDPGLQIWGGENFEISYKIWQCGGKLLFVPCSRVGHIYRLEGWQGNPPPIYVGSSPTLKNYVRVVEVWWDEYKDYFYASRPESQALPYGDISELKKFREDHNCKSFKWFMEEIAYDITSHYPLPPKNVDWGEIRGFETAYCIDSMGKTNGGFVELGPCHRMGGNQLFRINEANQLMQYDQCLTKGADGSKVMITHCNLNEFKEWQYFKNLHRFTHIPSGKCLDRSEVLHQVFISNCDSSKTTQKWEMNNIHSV
Procedure: as §2
GalNAc-T7 activity was analysed with GalNAc glycosylated glycopeptides (represented by GalNAc2-3EA2 (7)) in reactions of 25 μl containing 2.5 nmol acceptor (glyco)peptide, 40 nmol UDP-GalNAc, and purified GalNAc-T7. […]

T1 sequence (Q8N4A0 32-578): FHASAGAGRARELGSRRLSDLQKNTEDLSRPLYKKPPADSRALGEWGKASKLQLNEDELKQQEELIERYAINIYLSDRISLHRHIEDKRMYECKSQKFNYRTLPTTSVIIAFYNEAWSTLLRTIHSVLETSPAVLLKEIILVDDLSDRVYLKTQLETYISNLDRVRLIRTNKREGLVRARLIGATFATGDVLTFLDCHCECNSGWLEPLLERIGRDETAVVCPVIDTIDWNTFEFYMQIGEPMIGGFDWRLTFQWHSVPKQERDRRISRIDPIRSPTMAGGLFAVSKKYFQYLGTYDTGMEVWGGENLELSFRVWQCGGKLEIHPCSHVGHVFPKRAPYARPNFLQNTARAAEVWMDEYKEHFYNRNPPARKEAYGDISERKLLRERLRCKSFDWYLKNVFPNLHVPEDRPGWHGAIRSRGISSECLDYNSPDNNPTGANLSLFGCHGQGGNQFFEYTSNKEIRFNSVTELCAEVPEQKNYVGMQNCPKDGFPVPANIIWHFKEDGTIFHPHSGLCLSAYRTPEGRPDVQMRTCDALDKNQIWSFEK

CC(=O)N[C@H]1C(O)O[C@H](CO)[C@H](O)[C@@H]1O (stereo partly shown) [GalNAc, N-acetylgalactosamine]
Inhibition of glycosylation dependent specificity of GalNAc-T4 [1]: almost completely inhibited
Effect on glycosylation independent activities of GalNAc-T4 [2]: no effect
Inhibition of galactosyltransferase activity of GalNAc-T3 [3]: selectively inhibited
Inhibition of galactosyltransferase activity of GalNAc-T2 [4]: selectively inhibited

CC(=O)N[C@H]1[C@H](OCc2ccccc2)O[C@H](CO)[C@H](O)[C@@H]1O [GalNAcβ-benzyl, benzyl-2-acetamido-2-deoxy-β-D-galactopyranoside galactosamine]
Secreted MUC1 in medium [5]: inhibition of secreted MUC1
MUC1 expression ([6]; blot 5E5, cells grown in GalNAc): strong inhibition; also recorded: same or better reduction in MUC1 expression
MUC1 expression ([6]; blot HMFG2, grown in GalNAc or Gal and GalNAc): same or better reduction in MUC1 expression
SDS-PAGE migration of MUC1 (O-glycosylation) ([6]; cells grown in Gal and GalNAc): no change in the migration of MUC1

CC(=O)N[C@H]1[C@@H](OCc2ccccc2)O[C@H](CO)[C@H](O)[C@@H]1O[C@@H]1O[C@H](CO)[C@H](O)[C@H](O)[C@H]1O [Galβ1-3GalNAcα1-bz]
Inhibition of GalNAc-T7 activity with GalNAc2-3EA2 [7]: significantly inhibited

OC[C@H]1O[C@@H](OCc2ccccc2)[C@H](O)[C@@H](O)[C@H]1O [bz-βGal]
Inhibition of GalNAc-T7 activity with GalNAc2-3EA2 [7]: significantly inhibited
